Data reported in US8877707B2, “Inhibitors of HCV NS5A” (Presidio Pharmaceuticals, Inc., priority 2010, dated 2014).

These compounds were tested on HCV genotype 1b replicon in Huh 7 cells (assay: HCV replicon assay (1b_Huh-Luc/Neo-ET cell line, luciferase readout)). Details: Hepatitis C virus, Huh-7; HCV 1b replicon; read-out: Inhibition of HCV genotype 1b.
Type: cell-based
Procedure, shortened: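 Huh 7 cells carrying a bicistronic genotype 1b luciferase replicon were treated with compound in triplicate the day after plating and incubated 72 h. Luciferase activity expressed as % of untreated control; EC50 from a four-parameter logistic fit, repeated several times.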

Row | SMILES | EC50
1 | COC(=O)N[C@H](C(=O)N1CCC[C@H]1CNC(=O)c1ccc2cc(-c3ccc(-c4cnc([C@@H]5CCCN5C(=O)[C@@H](NC(=O)OC)[C@@H](C)OC)[nH]4)cc3)ccc2c1)[C@@H](C)OC [compound 575] | < 1 nM
2 | COC(=O)N[C@@H](C)C(=O)N1CCC[C@H]1C(=O)Nc1ccc(-c2ccc3cc(-c4cnc([C@@H]5CCCN5C(=O)[C@H](C)NC(=O)OC)[nH]4)ccc3c2)cc1 [compound 570] | 1 to 9.9 nM
3 | COC(=O)N[C@H](C(=O)N1CCC[C@H]1C(=O)N[C@H](C)c1ccc(-c2ccc3cc(-c4cnc([C@@H]5CCCN5C(=O)[C@@H](NC(=O)OC)C5CCOCC5)[nH]4)ccc3c2)cc1)C1CCOCC1 [compound 563] | 1 to 9.9 nM
4 | C#CC[C@H](NC(=O)OC)C(=O)N1CCC[C@H]1c1ncc(-c2ccc3nc(-c4ccc(-c5cnc([C@@H]6CCCN6C(=O)[C@H](NC(=O)OC)c6ccccc6)[nH]5)cc4F)ccc3c2)[nH]1 [compound 487] | < 1 nM
5 | COC(=O)N[C@H](C(=O)N1CCC[C@H]1CNC(=O)c1ccc(-c2ccc3cc(-c4cnc([C@@H]5CCCN5C(=O)[C@@H](NC(=O)OC)[C@@H](C)OC)[nH]4)ccc3c2)cc1)[C@@H](C)OC [compound 572] | < 1 nM
6 | CC[C@H](C)[C@H](NC(=O)OC)C(=O)N1CCC[C@H]1c1ncc(-c2ccc(-c3ccc4cc(-c5cnc([C@@H]6CCCN6C(=O)[C@@H](NC(=O)OC)[C@@H](C)OC)[nH]5)ccc4c3)cc2)[nH]1 [compound 503] | < 1 nM
7 | COC(=O)N[C@H](C(=O)N1CCC[C@H]1c1nc2ccc(-c3ccc4cc(-c5cnc([C@@H]6CCCN6C(=O)[C@@H](NC(=O)OC)[C@@H](C)OC)[nH]5)ccc4c3)nc2[nH]1)C(C)C [compound 532] | < 1 nM
8 | COC(=O)N[C@H](C(=O)N1CCC[C@H]1c1ncc(-c2ccc3nc(-c4ccc(-c5cnc([C@@H]6CCCN6C(=O)[C@H](NC(=O)OC)c6ccccc6)[nH]5)c(F)c4)ccc3c2)[nH]1)C1CCOCC1 [compound 473] | < 1 nM
9 | COC(=O)N[C@H](C(=O)N1CCC[C@H]1c1ncc(-c2ccc3cc(-c4ccc5nc([C@@H]6CCCN6C(=O)[C@@H](NC(=O)OC)C6CCCC6)[nH]c5n4)ccc3c2)[nH]1)C1CCCC1 [compound 515] | < 1 nM
10 | COC(=O)N[C@H](C(=O)N1CCC[C@H]1c1ncc(-c2ccc3cc(-c4cnc(-c5cnc([C@@H]6CCCN6C(=O)[C@@H](NC(=O)OC)C(C)C)[nH]5)cn4)ccc3c2)[nH]1)C(C)C [compound 506] | < 1 nM
11 | COC[C@H](NC(=O)OC)C(=O)N1CCC[C@H]1c1ncc(-c2ccc(-c3ccc4cc(-c5cnc([C@@H]6CCCN6C(=O)[C@H](COC)NC(=O)OC)[nH]5)ccc4c3)cc2)[nH]1 [compound 463] | < 1 nM

Same assay, conditions: Hepatitis C virus; Table 1; genotype 1b replicon, Huh 7 cells, 72 h, luciferase; read-out: Inhibition of HCV genotype 1b

Row | SMILES | EC50
12 | COC(=O)N[C@H](C(=O)N1CCC[C@H]1c1ncc(-c2ccc(-c3ccc4cc(-c5c[nH]c([C@@H]6CCCN6C(=O)[C@@H](NC(=O)OC)C6CCOCC6)n5)cnc4c3)cn2)[nH]1)C(C)C [compound 95] | < 1 nM
13 | COC(=O)N[C@H](C(=O)N1CCC[C@H]1c1ncc(-c2ccc3cc(-c4ccc5nc([C@@H]6CCCN6C(=O)[C@@H](NC(=O)OC)C6CCOCC6)[nH]c5c4)ncc3c2)[nH]1)C(C)C [compound 219] | < 1 nM
14 | COC(=O)N[C@H](C(=O)N1CCC[C@H]1c1nc(-c2ccc3c(c2)CCN(c2c(F)cc(-c4cnc([C@@H]5CCCN5C(=O)[C@@H](NC(=O)OC)C(C)C)[nH]4)cc2F)C3)c[nH]1)C(C)C [compound 269] | < 1 nM
15 | COC(=O)N[C@H](C(=O)N1CCC[C@H]1c1ncc(-c2ccc(-c3ccc4cc(-c5cnc([C@@H]6CCCN6C(=O)[C@H](NC(=O)OC)c6ccccc6)[nH]5)ccc4n3)c(F)c2)[nH]1)C1CCOCC1 [compound 129] | < 1 nM
16 | COC(=O)N[C@H](C(=O)N1CCC[C@H]1c1nc(-c2cnc3cc(-c4ccc(-c5cnc([C@@H]6CCCN6C(=O)[C@H](NC(=O)OC)c6ccccc6)[nH]5)cc4)ccc3c2)c[nH]1)C(C)C [compound 32] | < 1 nM
17 | COC(=O)N[C@H](C(=O)N1CCC[C@H]1c1ncc(-c2ccc3cc(-c4ccc(-c5cnc([C@@H]6CCCN6C(=O)[C@H](NC(=O)NC6CC6)c6ccccc6)[nH]5)cc4)ncc3c2)[nH]1)C1CCOCC1 [compound 145] | < 1 nM
18 | COC(=O)N[C@H](C(=O)N1CCC[C@H]1c1ncc(-c2ccc3nc(-c4ccc(-c5cnc([C@@H]6C[C@@H](O)CN6C(=O)[C@@H](NC(=O)OC)C(C)C)[nH]5)cc4)ccc3c2)[nH]1)C(C)C [compound 146] | < 1 nM
19 | COC(=O)N[C@@H](C(=O)N1CCC[C@H]1c1nc(-c2ccc3c(=O)n(-c4ccc(-c5cnc([C@@H]6CCCN6C(=O)[C@H](NC(=O)OC)c6ccccc6)[nH]5)cc4)ccc3c2)c[nH]1)c1ccccc1 [compound 288] | < 1 nM
20 | COC(=O)N[C@H](C(=O)N1CCC[C@H]1c1nc(-c2ccc3cc(-c4ccc(-c5cnc([C@@H]6CCCN6C(=O)[C@@H](NC(=O)OC)[C@@H](C)O)[nH]5)cc4)ccc3c2)c[nH]1)[C@@H](C)O [compound 4] | < 1 nM
21 | COC(=O)N[C@H](C(=O)N1CCC[C@H]1c1ncc(-c2ccc(-c3ccc4cc(-c5c[nH]c([C@@H]6CCCN6C(=O)[C@@H](c6ccccc6)N(C)C)n5)ccc4c3)cc2)[nH]1)C(C)C [compound 6] | < 1 nM
22 | COC(=O)N[C@H](C(=O)N1CCC[C@H]1c1ncc(-c2ccc(-c3ccc4cc(-c5c[nH]c([C@@H]6CCCN6C(=O)[C@H](NC(=O)OC(C)(C)C)c6ccccc6)n5)ccc4n3)cc2)[nH]1)C1CCOCC1 [compound 91] | < 1 nM
23 | COC(=O)N[C@H](C(=O)N1CCC[C@H]1c1nc(-c2ccc3cc(-c4ccc(-c5cnc([C@@H]6CCCN6C(=O)[C@@H](NC(=O)OC)C(C)C)[nH]5)cc4)ccc3c2)c[nH]1)C(C)C [compound 1] | < 1 nM
24 | COC(=O)N[C@H](C(=O)N1CCC[C@H]1c1ncc(-c2ccc3cc(-c4ccc(-c5cnc([C@@H]6CCCN6C(=O)[C@H](NC(=O)OC)c6ccccc6)[nH]5)cc4)ccc3c2)[nH]1)[C@@H](C)OC [compound 115] | < 1 nM
25 | CCNC(=O)N[C@@H](C(=O)N1CCC[C@H]1c1ncc(-c2ccc(-c3ccc4cc(-c5c[nH]c([C@@H]6CCCN6C(=O)[C@@H](NC(=O)OC)C(C)C)n5)ccc4c3)cc2)[nH]1)c1ccccc1 [compound 27] | < 1 nM
26 | COC(=O)N[C@H](C(=O)N1CCC[C@H]1c1ncc(-c2ccc3nc(-c4ccc5nc([C@@H]6CCCN6C(=O)[C@H](NC(=O)OC)c6ccccc6)[nH]c5c4)ccc3c2)[nH]1)C(C)C [compound 197] | < 1 nM
27 | COC(=O)N[C@H](C(=O)N1CCC[C@H]1c1nc2c([nH]1)-c1ccc(-c3ccc4cc(-c5cnc([C@@H]6CCCN6C(=O)[C@@H](NC(=O)OC)C6CCOCC6)[nH]5)ccc4n3)cc1CC2)C(C)C [293-1] | < 1 nM
28 | COC(=O)N[C@@H](C(=O)N1CCC[C@H]1c1nc(-c2ccc3nc(-c4ccc(-c5cnc([C@@H]6CCCN6C(=O)[C@H](NC(=O)OC)c6ccccc6)[nH]5)c(F)c4)ccc3c2)c[nH]1)c1ccccc1 [compound 109] | < 1 nM
29 | COC(=O)N[C@H](C(=O)N1CCC[C@H]1c1nc(-c2cnc3cc(-c4ccc(-c5cnc([C@@H]6CCCN6C(=O)[C@H](NC(=O)OC(C)(C)C)c6ccccc6)[nH]5)cc4)ccc3c2)c[nH]1)C1CCOCC1 [compound 72] | < 1 nM
30 | COC(=O)N[C@@H](C(=O)N1CCC[C@H]1c1nc(-c2ccc3[nH]c(-c4ccc(-c5cnc([C@@H]6CCCN6C(=O)[C@H](NC(=O)OC)c6ccccc6)[nH]5)cc4)cc(=O)c3c2)c[nH]1)c1ccccc1 [compound 77] | 10 to 999 nM
31 | C=CC[C@H](NC(=O)OC)C(=O)N1CCC[C@H]1c1ncc(-c2ccc3nc(-c4ccc(-c5cnc([C@@H]6CCCN6C(=O)[C@@H](NC(=O)OC)C(C)C)[nH]5)cc4F)ccc3c2)[nH]1 [compound 159] | < 1 nM
32 | COC(=O)N[C@@H](C)C(=O)N1CCC[C@H]1c1nc2ccc(-c3ccc4cc(-c5ccc6nc([C@@H]7CCCN7C(=O)[C@H](C)NC(=O)OC)[nH]c6c5)ccc4c3)cc2[nH]1 [compound 278] | < 1 nM
33 | COC(=O)N[C@H](C(=O)N1CCC[C@H]1c1nc(-c2ccc3nc(C45CCC(c6cnc([C@@H]7CCCN7C(=O)[C@@H](NC(=O)OC)C7CC7)[nH]6)(CC4)CC5)ccc3c2)c[nH]1)C1CC1 [compound 265] | < 1 nM
34 | COC(=O)N[C@H](C(=O)N1CCC[C@H]1c1ncc(-c2ccc(-c3ccc4cc(-c5cnc([C@@H]6CCCN6C(=O)[C@H](NC(=O)OC6CCOCC6)c6ccccc6)[nH]5)ccc4n3)cc2F)[nH]1)C(C)C [compound 125] | < 1 nM
35 | COC(=O)N[C@H](C(=O)N1CCC[C@H]1c1ncc(-c2ccc(-c3ccc4nc(-c5c[nH]c([C@@H]6CCCN6C(=O)[C@H](NC(=O)OC)c6ccccc6)n5)ccc4c3)cc2)[nH]1)C(C)C [compound 103] | < 1 nM
36 | COC(=O)N[C@H](C(=O)N1CCC[C@H]1c1nc(-c2ccc3cc(-c4ccc(-c5cnc([C@@H]6CCCN6C(=O)[C@@H](NC(=O)OC)C(C)C)[nH]5)cc4F)ccc3c2)c[nH]1)C(C)C [compound 66] | < 1 nM
37 | CNC(=O)N[C@@H](C(=O)N1CCC[C@H]1c1ncc(-c2ccc(-c3ccc4cc(-c5c[nH]c([C@@H]6CCCN6C(=O)[C@@H](NC(=O)OC)C(C)C)n5)ccc4c3)cc2)[nH]1)c1ccccc1 [compound 18] | < 1 nM

Same assay, conditions: Hepatitis C virus; Table 2; genotype 1b replicon, Huh 7 cells, 72 h, luciferase; read-out: Inhibition of HCV genotype 1b

Row | SMILES | EC50
38 | COC(=O)N[C@H](C(=O)N1CCC[C@H]1c1ncc(-c2ccc3cc(-c4ccc(-c5cnc([C@@H]6CCCN6C(=O)[C@@H](NC(=O)OC)C(C)C)[nH]5)nn4)ccc3c2)[nH]1)C(C)C [compound 312] | < 1 nM
39 | COC(=O)N[C@H](C(=O)N1CCC[C@H]1c1ncc(-c2ccc3cc(-c4cnc5nc([C@@H]6CCCN6C(=O)[C@@H](NC(=O)OC)C6CCCCC6)[nH]c5c4)ccc3c2)[nH]1)C1CCCCC1 [compound 409] | < 1 nM
40 | COC(=O)N[C@H](C(=O)N1CCC[C@H]1c1ncc(-c2ccc3cc(-c4cnc5nc([C@@H]6CCCN6C(=O)[C@@H](NC(=O)OC)C6CC6)[nH]c5c4)ccc3c2)[nH]1)C1CC1 [compound 406] | < 1 nM
